Measured values taken from publication PMC8245078, “Development of novel benzofuran-isatin conjugates as potential antiproliferative agents with apoptosis inducing mechanism in Colon cancer” (Journal of Enzyme Inhibition and Medicinal Chemistry, 2021).

Assays:
Format in all cases: cell-based, human
[1] = tested on: anti-apoptotic Bcl2 protein in SW-620 cells; experiment: Western blot analysis of Bcl2; conditions: SW-620, 5 μM and 10 μM, 24 h
From the text: (§1) To further examine the possible mechanism of apoptosis, the effect of compounds 5a and 5d on certain apoptosis-related proteins was studied. Bcl2 protein as a critical component of the mitochondrial apoptotic pathway is reported to be overexpressed in numerous tumours causing survival of cancer cell[62]. In addition, it was reported that caspase activation during apoptosis leads to proteolytic cleavage of several cellular substrates participating in DNA reparation including [poly (ADP-ribose) polymerase][63]. Therefore, the impact of compounds 5a and 5d on the anti-apoptotic protein Bcl2 and the level of cleaved PARP was examined (Figure 7). […]
(§2) 2.5. Western Blot Analysis
(§3) All cells were seeded in a 100 mm dish (1 × 10^6 cells per dish) in 5% CO2 at 37 °C in the appropriate culture medium. The cells with around 50% confluency were treated with compounds for 24h. At the experiment day, cells were washed with 1x PBS, harvested and lysed in RIPA lysis buffer, combined with protease inhibitors, (Sigma-Aldrich, St. Louis, MO, USA) as described previously (39)). The total protein concentration was evaluated by the colorimetric Bradford protein assay (BIO-RAD inc, CA, USA) at 595 nm absorbance. Lysates were loaded in […]
(§4) equal concentration and separated by sodium dodecyl sulfate-polyacrylamide gel electrophoresis (SDS-PAGE) and then transferred to a nitrocellulose membrane by semi-dry. […]

[2] = tested on: SW-620 colorectal cancer cell line; experiment: MTT cell viability assay; conditions: for inhibition of SW-620 cancer cells viability: 10 µM, 24 h, MTT
Protocol: In the present investigation a new set of benzofuran–isatin hybrids (5a–e and 7a–i) was synthesised to be evaluated for their potential anticancer activity towards two human colorectal cancer cell lines, SW-620 and HT-29. […] Both, SW-620 and HT-29 cells were treated with 10 µM of each compound for 24 h and the percent cell viability was calculated using MTT assay.
For this reason, compounds 5a and 5d were pursued for further studies. Starting with determination of IC50s and cytotoxic selectivity studies. Serial concentrations of compounds 5a and 5d were used to examine their impact on cell viability using MTT protocol. Results of concentration vs percent viability were charted, and the IC50 was calculated for SW-620 and HT-29 cell lines using Graph Pad prism 8 (Figure 4). […]
[(Ti-Tz)/Tz] x 100 for concentrations for which Ti<Tz […]
SW620 and HT29 colorectal cancer cell lines and HFF-1 fibroblast (ATCC, Rockville, USA) were used. HT29 cells were cultured and maintained in Dulbecco’s Modified Eagles Medium (DMEM) (GIBCO, by Thermo Fischer Scientific, NY, USA) supplemented with 10% fetal bovine serum (FBS), 100 units/mL penicillin, and 100 μg streptomycin. SW620 and HFF-1 cells were cultured in Roswell Park Memorial Institute medium (RPMI-1640) (GIBCO, by Thermo scientific, NY, USA) supplemented with 10% FBS and 1% penicillin and streptomycin (Napolitano et al., 2015). All cultures were incubated at 37 °C and humidified atmosphere of 5% […]
2.3. Cell Viability Assay
The cytotoxicity effect of compounds on the colorectal cancer cell lines, SW620 and HT29 in addition to the normal human fibroblasts was measured by MTT (3-(4, 5-dimethylthiazol-2-yl)-2,5-diphenyltetrazolium bromide) (Sigma-Aldrich, St. Louis, MO, USA) as previously described. Briefly, cells were seeded in 96 well culture plates at 5000/well for HT29 and 10,000/well for SW620 for 24 h. Cells were then incubated with different compounds from WAG1 series (1-15) 24h at 37 °C and humidified 5% CO2 incubator. Freshly prepared 10 μl of 3-(4,5-dimethylthiazol-2-yl)-2,5-diphenyltetrazolium bromide (MTT 5 mM) solution were added to the cells and further incubated for 2 h. Thereafter, 100 μl of dimethyl sulfoxide (DMSO) were added in each well and the crystals were dissolved through careful pipetting. In certain experiment, cells were treated different concentration of 5FU for 72 h. The absorbance of the product was measured at 540 nm using a Synergy™ 2 multi-mode microplate reader (Biotech, VA, USA). The experiments were performed in triplicate for each condition. […]
The total protein concentration was evaluated by the colorimetric
Bradford protein assay (BIO-RAD inc, CA, USA) at 595 nm absorbance. Lysates were loaded in […]

[3] = tested on: cleaved PARP in SW-620 cells; experiment: Western blot analysis of cleaved PARP; conditions: SW-620, 5 μM and 10 μM, 24 h
From the text: as §1, §2, §3, §4

[4] = Homo sapiens, SW-620, SW-620, MTT

| Compound | Bcl2 protein expression (Western blot, in words) [1] | inhibition of SW-620 cancer cells viability [2] | IC50 [2, 4] | IC50 ([2]; SW-620, MTT) | level of cleaved PARP (Western blot, in words) [3] |
| --- | --- | --- | --- | --- | --- |
| Cc1c(C(=O)N/N=C2\C(=O)Nc3ccccc32)oc2ccccc12 [Compound 5a] | dose dependent inhibition | 46% | 8.7 µM | 9.4 µM | significant increase |
| COc1ccc2c(c1)/C(=N/NC(=O)c1oc3ccccc3c1C)C(=O)N2 [Compound 5d] | significant inhibition | about 52% | 6.5 µM | 9.8 µM | significant increase |
